The values that follow come from patent US20240175865A1, “IMPROVED PROCESSES FOR RATIONALLY-DESIGNING AND PRODUCING BIOMOLECULES” (priority 2020, published 2024).

Experiment [1] deals with T1, Streptococcus pneumoniae MalX variant T243C, MDCC conjugate (parent MalX SEQ ID NO: 1) (Streptococcus pneumoniae serotype 4, UniProt P59213, I417L/S91N/T250C).
T1 construct: made in house; host or cells: Escherichia coli BL21(DE3) gold
The experiment in a line: biochemical. It is filed as binding.

Experiment [2] concerns the target Streptococcus pneumoniae MalX variant A174C, MDCC conjugate (parent MalX SEQ ID NO: 1) (Streptococcus pneumoniae, UniProt P59213, A181C). The class given is binding. The settings on record: 1 μM biosensor.
For experiment [3], the target named is Streptococcus pneumoniae MalX variant E312C, MDCC conjugate (parent MalX SEQ ID NO: 1) (Streptococcus pneumoniae, UniProt P59213, E319C). It is filed as binding. Particulars: 1 μM biosensor.
Experiment [4] has as its target Streptococcus pneumoniae MalX, unlabeled protein (SEQ ID NO: 1). The settings on record: unlabeled protein (ABBOTT et al. 2010); read-out: measured affinity (KD); cited from earlier work.
The test system of experiment [5] is Yersinia enterocolitica TogB, unmodified protein (SEQ ID NO: 2). The settings on record: isothermal titration calorimetry; cited from earlier work.
The test system is the same in experiment [6]. The settings on record: UV-difference spectroscopy; cited from earlier work.
For experiment [7], the target named is T1, Streptococcus pneumoniae MalX variant T243C, MDCC conjugate (parent MalX SEQ ID NO: 1). It is filed as binding. The settings on record: 1 μM biosensor, 20 μM maltose.
Experiment [8] addresses T2, Escherichia coli EF-Tu, unmodified (SEQ ID NO: 3) (Escherichia coli, UniProt P0CE47).
T2 construct: His6 tag (C-terminal SHHHHHH in the listing) (C)
As to the kind of experiment: Nucleotide dissociation rate, stopped-flow, unmodified EF-Tu. It is filed as binding. Particulars: 20° C., TAKM7.

Where two headings read alike, the source gives them in different places.

As to `OC[C@H]1O[C@H](O[C@H]2[C@H](O)[C@@H](O)[C@@H](O[C@H]3[C@H](O)[C@@H](O)C(O)O[C@@H]3CO)O[C@@H]2CO)[C@H](O)[C@@H](O)[C@@H]1O` (stereo partly shown) [M3, Maltotriose], the dissociation constant Kd in experiment [1] is 0.6 ± 0.2 µM; in experiment [4], 0.8 ± 0.125 µM. Also, the “fluorescence change upon binding M3” value in experiment [2] (20 μM M3) and in experiment [3] (20 μM M3) was “did not show a fluorescence change” throughout.

With `O=C(O)C1=C[C@H](O)[C@@H](O)[C@@H](O[C@@H]2[C@H](O)[C@@H](O)C(O)O[C@@H]2C(=O)O)O1` (stereo partly shown) [unsatdigalUA, 4,5-unsaturated digalacturonic acid], the Kd in experiment [5] was 5 ± 1 µM; in experiment [6], 3.2 ± 0.1 µM.

In the case of `O=C(O)[C@H]1O[C@H](O[C@@H]2[C@H](O)[C@@H](O)C(O)O[C@@H]2C(=O)O)[C@H](O)[C@@H](O)[C@H]1O` (stereo partly shown) [digalUA, digalacturonic acid], the Kd in experiment [5] is 16 ± 2 µM; in experiment [6], 11.8 ± 0.5 µM.

Turning to `OC[C@H]1O[C@H](O[C@H]2[C@H](O)[C@@H](O)C(O)O[C@@H]2CO)[C@H](O)[C@@H](O)[C@@H]1O` (stereo partly shown) [maltose, Maltose], the “fluorescence change in presence of non-specific ligand (maltose)” value in experiment [2] (20 μM maltose), in experiment [7] and in experiment [3] (20 μM maltose) was “little to no fluorescence change” throughout.

Take `Nc1nc2c(ncn2[C@@H]2O[C@H](COP(=O)(O)OP(=O)(O)O)[C@@H](O)[C@H]2O)c(=O)[nH]1` [GDP, guanosine diphosphate]: the off-rate constant (koff) in experiment [8] (mantGDP complex mixed with excess GTP/GDP, read-out: GDP Dissociation Rate Koff) worked out at 0.002 ± 0.001 s⁻¹.

On to `Nc1nc2c(ncn2[C@@H]2O[C@H](COP(=O)(O)OP(=O)(O)OP(=O)(O)O)[C@@H](O)[C@H]2O)c(=O)[nH]1` [GTP, guanosine triphosphate], for which, in experiment [8] (mantGTP complex mixed with excess GTP/GDP, read-out: GTP Dissociation Rate koff), the koff stood at 0.04 ± 0.01 s⁻¹.

What is called Kd is the constant that tells how readily two partners part at equilibrium. For orientation: koff means the first-order rate constant of dissociation.
